These are literature values, as cited in patent US20230404937A1, “NOVEL DISINTEGRATION ORAL FILM FORMULATION WITH A CONTROLLED OR SUSTAINED ACTIVE RELEASE” (INTELGENX CORP., priority 2022, published 2023).

For this data set the following is noted: when orally ingested; first metabolized in the liver.

Each structure is given as a SMILES string.

`CCCCCc1cc(O)c2c(c1)OC(C)(C)[C@@H]1CCC(C)=C[C@@H]21` [THC, tetrahydrocannabinol]: the oral bioavailability is given as 5%.
